From PMC7880554 (ACS chemical biology, 2016)

Target: Culp1 (Rv1984c) (Mycobacterium tuberculosis, UniProt P9WP43)
Conditions: band identified by mass spectrometry; transposon mutant control

Chain of Culp1 (Rv1984c) (P9WP43 33-217): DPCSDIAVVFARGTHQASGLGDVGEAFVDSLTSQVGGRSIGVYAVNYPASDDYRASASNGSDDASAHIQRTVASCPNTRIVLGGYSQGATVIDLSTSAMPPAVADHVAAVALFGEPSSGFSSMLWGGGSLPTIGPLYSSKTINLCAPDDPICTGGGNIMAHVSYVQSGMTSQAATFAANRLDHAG

**Q.** How did the “in-gel fluorogenic activity, native PAGE-resolved lysate” value turn out when `CCCCCCCC(=O)OCOc1ccc2c(c1)C(C)(C)C1=C(Cl)C(=O)C(Cl)=CC1=N2` [DDAO-7-OME] was run?
**A.** DDAO-7-OME provided the clearest Mtb banding patterns in these complex lysates and revealed Culp1 activity
